Values quoted from earlier work as cited in US12648566B2, “Solid bio-pesticidal composition comprising of elemental sulphur and azadirachtin” (SML LIMITED, priority 2021, dated 2026).

Settings: buffer, pH 4

Structure (SMILES): C/C=C(\C)C(=O)O[C@H]1C[C@@H](OC(C)=O)[C@@]2(C(=O)OC)CO[C@H]3[C@@H](O)[C@@](C)([C@]45O[C@@]4(C)[C@H]4C[C@@H]5O[C@@H]5OC=C[C@@]54O)[C@H]4[C@]1(CO[C@]4(O)C(=O)OC)[C@@H]32 [Azadirachtin]
- laboratory half-life: 50 to 100 days
